From patent US12514861B2, “Targeting DNA-PKCS and B7-H1 to treat cancer” (Mayo Foundation for Medical Education and Research, priority 2014, dated 2026)
Like-named read-outs stand apart in the source and are kept apart here.

How the values were obtained:
[1] = tested on: B7-H1/624mel cells; experiment: MTS tumor cell survival assay; assay type: cell-based; details: for drug resistance of B7-H1/624mel cells compared with Mock/624mel cells (tumor cell survival): varying drug concentrations, 72 hours of culture, MTS assay
Procedure: (§7) Cells were pre-treated with DMSO or NU7026 (10 uM) for 1 hour before treatment with doxorubicin (Dox). The relative survival of tumor cells was measured by MTS assay 72 hours after Dox treatment.
Experiments were conducted to test whether B7-H1-expressing tumors would show resistance to drugs that cause DNA damage. Along with cisplatin, which crosslinks DNA, doxorubicin (a topoisomerase II inhibitor that leads to generation of free radicals) and SN38 (a topoisomerase I inhibitor) were tested. Drug sensitivity in B7-H1- and Mock-transfected 624mel melanoma cells was examined in cultures with varying concentrations of the drugs. After 72 hours of culture, tumor cell survival was measured with a MTS assay (Pei et al., Cancer Cell 16:259-266, 2009).
(§8) To test whether the association of B7-H1 with DNA-PKcs is a mechanism of drug resistance, the effects of NU7026 on drug sensitivity of B7-H1- or Mock-transfected 624mel cells were tested. […] Using the same dose (10 uM) of NU7026, experiments were conducted to determine whether NU7026 would affect the drug sensitivity of B7-H1/624mel cells.

[2] = tested on: Mock/624mel cells; experiment: MTS tumor cell survival assay; assay type: cell-based; details: pretreatment with 10 uM NU7026 for 1 hour, MTS 72 hours after Dox
Procedure: as §7, §8

[3] = tested on: ERK1/2 activation in B7-H1/624mel cells; experiment: Intracellular flow cytometry for phospho-ERK1/2; assay type: cell-based; details: 10 uM, 24 hours
Procedure: (§1) FIG. 9 is a series of graphs plotting the levels of phosphorylated ERK (top graphs) and total ERK (bottom graphs) in Mock/624mel (left) and B7-H1/624mel (right) tumor cells treated with DMSO or NU7026. Cells were treated with DMSO or NU7026 (10 uM) for 24 hours before intracellular staining for phospho-ERK or total ERK. Numbers are MFI. Inhibition of DNA-PKcs reduced ERK activation, as indicated in the diagram on the right.
(§2) To test the role of DNA-PKcs in activation of the MAPK signal cascade, tumor cells were treated with NU7026, a DNA-PKcs specific inhibitor. […] As a mechanism of action of ERK1/2 in drug resistance, ERK1/2 phosphorylates Bim and enhances degradation of Bim in tumor cells (Gillings, et al., FEBS J 276:6050-6062, 2009; and Luciano et al., Oncogene 22:6785-6793, 2003).

[4] = tested on: ERK1/2 activation in Mock/624mel cells; experiment: Intracellular flow cytometry for phospho-ERK1/2; assay type: cell-based; details: 10 uM, 24 hours
Procedure: as §1, §2

[5] = target: T1, association of B7-H1 with DNA-PKcs (Homo sapiens, UniProt P78527); experiment: Immuno-precipitation assay of B7-H1 association with DNA-PKcs; assay type: cell-based; details: B7-H1 positive human breast cancer cells (MBA-MD-231)
T1 construct: B7-H1 positive human breast cancer cells (MBA-MD-231) were used; endogenous in cells; host or cells: MDA-MB-231 human breast cancer cells
T1 sequence (P78527 whole entry): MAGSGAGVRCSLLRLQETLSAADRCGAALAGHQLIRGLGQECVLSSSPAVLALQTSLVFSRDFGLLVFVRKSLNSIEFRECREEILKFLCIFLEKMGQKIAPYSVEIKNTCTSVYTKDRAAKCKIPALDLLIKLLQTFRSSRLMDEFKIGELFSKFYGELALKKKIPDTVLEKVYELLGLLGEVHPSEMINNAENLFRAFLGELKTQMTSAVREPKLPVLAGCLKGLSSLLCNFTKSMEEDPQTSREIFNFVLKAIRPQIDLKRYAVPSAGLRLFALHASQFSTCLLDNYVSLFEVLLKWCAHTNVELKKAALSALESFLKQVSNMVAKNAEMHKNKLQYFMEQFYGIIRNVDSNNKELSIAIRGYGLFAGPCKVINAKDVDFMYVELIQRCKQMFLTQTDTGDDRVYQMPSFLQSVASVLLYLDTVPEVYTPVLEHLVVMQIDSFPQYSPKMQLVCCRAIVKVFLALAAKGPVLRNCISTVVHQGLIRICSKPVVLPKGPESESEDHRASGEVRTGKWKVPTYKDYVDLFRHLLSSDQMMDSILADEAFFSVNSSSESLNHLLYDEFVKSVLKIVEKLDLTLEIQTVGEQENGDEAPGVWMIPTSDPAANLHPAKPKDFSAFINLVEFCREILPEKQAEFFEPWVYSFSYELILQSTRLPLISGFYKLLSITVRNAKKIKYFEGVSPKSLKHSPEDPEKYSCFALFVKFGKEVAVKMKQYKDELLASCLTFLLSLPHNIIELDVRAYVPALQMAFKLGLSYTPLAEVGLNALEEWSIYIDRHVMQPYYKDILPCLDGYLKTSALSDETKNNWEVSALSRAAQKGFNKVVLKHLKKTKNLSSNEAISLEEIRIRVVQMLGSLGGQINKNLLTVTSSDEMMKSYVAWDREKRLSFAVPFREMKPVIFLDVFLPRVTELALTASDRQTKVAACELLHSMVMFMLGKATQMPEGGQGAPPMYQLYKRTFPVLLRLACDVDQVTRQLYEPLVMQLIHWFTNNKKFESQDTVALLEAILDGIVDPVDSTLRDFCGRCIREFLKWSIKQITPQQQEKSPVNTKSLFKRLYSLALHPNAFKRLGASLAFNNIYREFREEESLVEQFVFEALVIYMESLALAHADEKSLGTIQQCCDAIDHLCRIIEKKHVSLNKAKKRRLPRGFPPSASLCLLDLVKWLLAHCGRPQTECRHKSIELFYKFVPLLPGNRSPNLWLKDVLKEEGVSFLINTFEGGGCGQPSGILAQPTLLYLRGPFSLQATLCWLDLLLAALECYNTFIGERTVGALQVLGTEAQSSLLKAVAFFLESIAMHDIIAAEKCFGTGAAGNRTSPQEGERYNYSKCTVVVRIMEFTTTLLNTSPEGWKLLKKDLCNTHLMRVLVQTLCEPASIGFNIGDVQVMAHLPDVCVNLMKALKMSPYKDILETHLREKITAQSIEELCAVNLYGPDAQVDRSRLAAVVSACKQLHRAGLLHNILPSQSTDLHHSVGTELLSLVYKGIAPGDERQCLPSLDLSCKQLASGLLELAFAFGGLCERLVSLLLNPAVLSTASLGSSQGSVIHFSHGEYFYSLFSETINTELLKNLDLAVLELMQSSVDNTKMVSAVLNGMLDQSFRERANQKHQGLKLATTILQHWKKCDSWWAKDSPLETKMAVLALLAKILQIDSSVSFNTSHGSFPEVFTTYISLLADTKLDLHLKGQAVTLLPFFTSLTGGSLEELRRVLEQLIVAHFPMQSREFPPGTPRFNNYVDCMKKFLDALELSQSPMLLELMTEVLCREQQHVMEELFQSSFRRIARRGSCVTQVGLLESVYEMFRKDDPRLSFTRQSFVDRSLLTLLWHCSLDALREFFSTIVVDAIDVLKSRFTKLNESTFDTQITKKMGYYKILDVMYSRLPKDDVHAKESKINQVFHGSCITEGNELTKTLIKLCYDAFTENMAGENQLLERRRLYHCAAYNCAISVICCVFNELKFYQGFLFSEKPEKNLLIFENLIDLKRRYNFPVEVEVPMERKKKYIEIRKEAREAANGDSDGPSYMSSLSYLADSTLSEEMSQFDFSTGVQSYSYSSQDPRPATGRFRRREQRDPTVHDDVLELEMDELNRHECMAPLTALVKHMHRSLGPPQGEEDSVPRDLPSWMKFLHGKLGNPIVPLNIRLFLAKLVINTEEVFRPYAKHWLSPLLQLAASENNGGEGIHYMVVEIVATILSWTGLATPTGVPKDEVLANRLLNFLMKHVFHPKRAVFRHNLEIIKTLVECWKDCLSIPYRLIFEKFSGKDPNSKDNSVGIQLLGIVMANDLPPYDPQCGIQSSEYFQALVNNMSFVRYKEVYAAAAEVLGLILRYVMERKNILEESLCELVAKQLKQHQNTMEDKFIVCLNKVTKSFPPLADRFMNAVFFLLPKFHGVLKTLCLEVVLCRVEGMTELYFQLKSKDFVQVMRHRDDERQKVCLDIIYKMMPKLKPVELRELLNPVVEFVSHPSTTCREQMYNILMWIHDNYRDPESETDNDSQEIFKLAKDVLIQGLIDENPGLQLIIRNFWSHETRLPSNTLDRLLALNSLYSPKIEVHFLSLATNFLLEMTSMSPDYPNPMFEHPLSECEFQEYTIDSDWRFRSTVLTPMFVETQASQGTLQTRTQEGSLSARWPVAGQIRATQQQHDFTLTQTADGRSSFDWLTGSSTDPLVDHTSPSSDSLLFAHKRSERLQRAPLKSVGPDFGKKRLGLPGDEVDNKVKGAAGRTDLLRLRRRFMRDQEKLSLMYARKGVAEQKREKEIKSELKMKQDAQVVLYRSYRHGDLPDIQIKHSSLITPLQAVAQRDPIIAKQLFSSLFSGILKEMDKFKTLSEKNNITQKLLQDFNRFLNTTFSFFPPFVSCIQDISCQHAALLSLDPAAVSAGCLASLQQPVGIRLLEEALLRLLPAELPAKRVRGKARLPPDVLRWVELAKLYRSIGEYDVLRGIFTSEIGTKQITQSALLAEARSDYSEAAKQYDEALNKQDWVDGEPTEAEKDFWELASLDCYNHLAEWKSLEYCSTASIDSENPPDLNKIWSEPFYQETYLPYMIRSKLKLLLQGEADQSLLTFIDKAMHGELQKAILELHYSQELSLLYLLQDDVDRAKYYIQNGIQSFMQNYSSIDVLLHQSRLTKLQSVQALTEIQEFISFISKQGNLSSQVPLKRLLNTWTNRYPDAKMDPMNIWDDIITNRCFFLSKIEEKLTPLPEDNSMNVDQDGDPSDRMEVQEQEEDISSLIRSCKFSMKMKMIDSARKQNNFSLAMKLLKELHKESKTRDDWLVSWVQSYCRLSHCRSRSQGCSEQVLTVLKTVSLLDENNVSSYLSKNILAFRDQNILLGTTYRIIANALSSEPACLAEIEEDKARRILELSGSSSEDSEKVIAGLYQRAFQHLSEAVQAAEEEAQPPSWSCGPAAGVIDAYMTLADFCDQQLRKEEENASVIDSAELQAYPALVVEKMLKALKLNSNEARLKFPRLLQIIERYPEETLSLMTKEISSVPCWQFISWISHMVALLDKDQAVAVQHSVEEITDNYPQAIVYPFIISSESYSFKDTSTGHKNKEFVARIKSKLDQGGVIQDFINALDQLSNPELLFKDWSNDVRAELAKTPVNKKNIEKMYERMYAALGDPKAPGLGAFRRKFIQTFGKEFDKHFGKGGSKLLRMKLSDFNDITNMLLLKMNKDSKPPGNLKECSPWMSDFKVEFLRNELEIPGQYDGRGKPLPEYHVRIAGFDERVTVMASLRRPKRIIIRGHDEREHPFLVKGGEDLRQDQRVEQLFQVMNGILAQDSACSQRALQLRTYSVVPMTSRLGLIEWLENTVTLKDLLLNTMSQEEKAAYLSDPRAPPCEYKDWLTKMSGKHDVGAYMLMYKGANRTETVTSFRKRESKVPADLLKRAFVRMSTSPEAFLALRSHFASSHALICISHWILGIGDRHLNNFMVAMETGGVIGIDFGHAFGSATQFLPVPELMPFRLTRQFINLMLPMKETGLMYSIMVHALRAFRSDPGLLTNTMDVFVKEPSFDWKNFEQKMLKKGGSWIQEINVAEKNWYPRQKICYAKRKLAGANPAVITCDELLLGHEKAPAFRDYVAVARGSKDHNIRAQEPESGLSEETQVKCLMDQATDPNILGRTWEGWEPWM
Procedure: (§3) MBA-MD-231 human breast cancer cells, which are positive for B7-H1, were incubated with NU7026, an inhibitor of DNA-PKCs. […] FIG. 15B is a series of pictures from an immunofluorescence assay in which the cells treated with doxorubicin, NU7026, or both, and stained for DNA-PKcs, DNA, or B7-H1. Doxorubicin-induced co-localization (arrow, upper right panel) of B7-H1 and DNA-PKcs at the nucleus was blocked by NU7026 (lower right panel).
(§4) B7-H1 positive human breast cancer cells (MBA-MD-231) were used to examine the association of DNA-PKcs and B7-H1.

[6] = target: T2, co-localization of B7-H1 and DNA-PKcs at the nucleus (Homo sapiens, UniProt P78527); experiment: Immunofluorescence staining of B7-H1 and DNA-PKcs co-localization; assay type: cell-based
T2 construct: B7-H1 positive human breast cancer cells (MBA-MD-231) were used; endogenous in cells; host or cells: MDA-MB-231 human breast cancer cells
T2 sequence (P78527 whole entry): as above
Procedure: FIG. 6 is a series of pictures showing co-localization of B7-H1 and DNA-PKcs. A human breast tumor cell line (MDA-MB-231) was treated with doxorubicin (2 ug/ml) for 2 hours. […] Arrows or arrowheads indicate B7-H1 in plasma or in nuclei, respectively.
as §3
B7-H1 undergoes redistribution from the cell surface into the nucleus in human breast tumor cells upon treatment with the cytotoxic drug, doxorubicin (Ghebeh et al., supra).
as §4

[7] = target: DNA-PKcs (Homo sapiens, UniProt P78527); details: cited from earlier work
[8] = tested on: PI3K; details: read-out: IC50 for inhibition of PI3K; cited from earlier work
[9] = tested on: B7-H1/624mel cells; experiment: Apoptosis by Annexin V binding and TMRE staining; assay type: cell-based; details: doxorubicin 1.5 ug/ml, 48 hr
Excerpt: (§5) FIG. 1A is a series of graphs plotting relative survival of Mock/624mel (triangles) and B7-H1/624mel (squares) cells treated with the indicated drugs, as determined by MTS (3-(4,5-dimethylthiazol-2-yl)-5-(3-carboxymethoxyphenyl)-2-(4-sulfophenyl)-2H-tetrazolium) assay. The p-value for area under the curve (dose-response curves) was significant (p<0.01) for treatment with cisplatin (left), doxorubicin (center), and SN38 (right). One of three experiments is shown. Apoptosis of tumor cells treated with doxorubicin (1.5 ug/ml, 48 hr.) was analyzed by tetramethylrhodamine ethyl ester (TMRE) and Annexin V staining (FIG. 1), and by intracellular staining for active caspase-3 (FIG. 1C). Numbers are percentages of gated population.
(§6) Experiments were conducted to test whether B7-H1-expressing tumors would show resistance to drugs that cause DNA damage. […] After 72 hours of culture, tumor cell survival was measured with a MTS assay (Pei et al., Cancer Cell 16:259-266, 2009). […] Since a mechanism of action of most cytotoxic drugs is to induce apoptosis (Sedletska et al., Curr Med Chem Anti-cancer Agents 5:251-265, 2005; and Wang et al., J Biol Chem 279:25535-25543, 2004), apoptosis of B7-H1/624mel and Mock/624mel tumor cells was measured and compared after treatment with doxorubicin. […]

[10] = tested on: B7-H1/624mel cells; experiment: Intracellular staining for active caspase-3; assay type: cell-based; details: doxorubicin 1.5 ug/ml, 48 hr
Excerpt: as §5, §6

O=c1cc(N2CCOCC2)oc2c1ccc1ccccc12 [NU7026]
effect on resistance of B7-H1/624mel cells to doxorubicin ([1]; pretreatment with 10 uM NU7026 for 1 hour, MTS 72 hours after Dox): lost their resistance to doxorubicin
effect on drug sensitivity of Mock/624mel cells [2]: increased the drug sensitivity
decrease of activation of ERK1/2 (phospho-ERK) [3]: ~2 fold
decrease of activation of ERK1/2 (phospho-ERK) [4]: not
effect on association of B7-H1 with DNA-PKcs [5]: abolished
effect on doxorubicin-induced co-localization of B7-H1 and DNA-PKcs at the nucleus ([6]; MBA-MD-231 cells, 1 μM NU7026): blocked
inhibition of DNA-PKcs activity ([7]; 10 uM): completely inhibits
IC50 ([7]; read-out: IC50 for inhibiting DNA-PKcs activity): 0.23 µM
IC50 ([7]; read-out: IC50 to inhibit DNA-PKcs): 0.23 µM
IC50 [8]: 13 µM

CCc1c2c(nc3ccc(O)cc13)-c1cc3c(c(=O)n1C2)COC(=O)[C@]3(O)CC [SN38]
drug resistance of B7-H1/624mel cells compared with Mock/624mel cells (tumor cell survival) [1]: more resistant

N.N.[Cl][Pt][Cl] [cisplatin]
drug resistance of B7-H1/624mel cells compared with Mock/624mel cells (tumor cell survival) [1]: more resistant

COc1cccc2c1C(=O)c1c(O)c3c(c(O)c1C2=O)C[C@@](O)(C(=O)CO)C[C@@H]3O[C@H]1C[C@H](N)[C@H](O)[C@H](C)O1 [doxorubicin]
drug resistance of B7-H1/624mel cells compared with Mock/624mel cells (tumor cell survival) [1]: more resistant
apoptosis in B7-H1/624mel cells compared to Mock/624mel cells (fold less) [9]: 5 fold
level of active caspase-3 in B7-H1/624mel cells compared with Mock/624mel cells [10]: lower
localization of B7-H1 and DNA-PKcs after treatment with cytotoxic drug ([6]; MDA-MB-231 cells, doxorubicin 2 ug/ml, 2 hours): co-localization of B7-H1 and DNA-PKcs was observed in the nuclei
